Laboratory results published in ChEMBL document CHEMBL1201862, “PubChem BioAssay data set” (2004).
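A five-concentration, 48-hour dose response in 96-well plates underlies each endpoint, interpolated linearly between surrounding concentrations. The concentration for 50% growth inhibition is given as GI50.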 Activity calls are given as the source filed them. No stated cut-off is given here; in the data, active = GI50 up to about 1.1 µM and inactive = higher.

Columns and labels:
Experiment in all cases: NCI-60 cell line screen, 48 h
OVCAR-4 = tested on: OVCAR-4
CAKI-1 = tested on: CAKI-1
SF-295 = tested on: SF-295
K562 = tested on: K562
HCT-15 = tested on: HCT-15
NCI/ADR-RES = tested on: NCI/ADR-RES
OVCAR-3 = tested on: OVCAR-3
IGROV-1 = tested on: IGROV-1
Malme-3M = tested on: Malme-3M
BT-549 = tested on: BT-549
COLO 205 = tested on: COLO 205
HT-29 = tested on: HT-29
HL-60 = tested on: HL-60
HCT-116 = tested on: HCT-116
Hs-578T = tested on: Hs-578T
SK-OV-3 = tested on: SK-OV-3
UACC-62 = tested on: UACC-62
NCI-H23 = tested on: NCI-H23
SK-MEL-2 = tested on: SK-MEL-2
SN12C = tested on: SN12C
NCI-H460 = tested on: NCI-H460
SNB-75 = tested on: SNB-75
SF-539 = tested on: SF-539
LOX IMVI = tested on: LOX IMVI
T47D = tested on: T47D
KM12 = tested on: KM12
RXF 393 = tested on: RXF 393
MDA-N = tested on: MDA-N
A549 = tested on: A549
RPMI-8226 = tested on: RPMI-8226
HCC 2998 = tested on: HCC 2998
MDA-MB-231 = tested on: MDA-MB-231
M14 = tested on: M14
OVCAR-8 = tested on: OVCAR-8
MOLT-4 = tested on: MOLT-4
ACHN = tested on: ACHN
EKVX = tested on: EKVX
SK-MEL-28 = tested on: SK-MEL-28
TK-10 = tested on: TK-10
UO-31 = tested on: UO-31
PC-3 = tested on: PC-3
CCRF-CEM = tested on: CCRF-CEM
SR = tested on: SR
NCI-H522 = tested on: NCI-H522
SW-620 = tested on: SW-620
U-251 = tested on: U-251
MDA-MB-435 = tested on: MDA-MB-435
SNB-19 = tested on: SNB-19
HOP-62 = tested on: HOP-62
786-0 = tested on: 786-0
MCF7 = tested on: MCF7
SK-MEL-5 = tested on: SK-MEL-5
SF-268 = tested on: SF-268
DU-145 = tested on: DU-145
UACC-257 = tested on: UACC-257
HOP-92 = tested on: HOP-92
OVCAR-5 = tested on: OVCAR-5
NCI-H226 = tested on: NCI-H226
A498 = tested on: A498

Nc1ccc(S(=O)(=O)Nc2nc3ccccc3nc2N2CCCCC2)cc1
GI50 (OVCAR-4): 24.2 µM (inactive)
GI50 (CAKI-1): > 100 µM (inactive)
GI50 (SF-295): 71.4 µM (inactive)
GI50 (K562): > 100 µM (inactive)
GI50 (HCT-15): 78.7 µM
GI50 (NCI/ADR-RES): 46.3 µM (inactive)
GI50 (OVCAR-3): > 100 µM (inactive)
GI50 (IGROV-1): 80.9 µM (inactive)
GI50 (Malme-3M): 71.9 µM (inactive)
GI50 (BT-549): 23.8 µM (inactive)
GI50 (COLO 205): 64.9 µM (inactive)
GI50 (HT-29): > 100 µM (inactive)
GI50 (HL-60): 46.3 µM (inactive)
GI50 (HCT-116): 80.7 µM (inactive)
GI50 (Hs-578T): > 100 µM (inactive)
GI50 (SK-OV-3): > 100 µM (inactive)
GI50 (UACC-62): > 100 µM (inactive)
GI50 (NCI-H23): 36.1 µM (inactive)
GI50 (SK-MEL-2): 88.1 µM (inactive)
GI50 (SN12C): 82 µM (inactive)
GI50 (NCI-H460): 79.3 µM (inactive)
GI50 (SNB-75): 24.3 µM (inactive)
GI50 (SF-539): > 100 µM (inactive)
GI50 (LOX IMVI): > 100 µM (inactive)
GI50 (T47D): 41.6 µM (inactive)
GI50 (KM12): 70.1 µM (inactive)
GI50 (RXF 393): 55.2 µM (inactive)
GI50 (MDA-N): > 100 µM (inactive)
GI50 (A549): 48.1 µM (inactive)
GI50 (RPMI-8226): 58.9 µM (inactive)
GI50 (HCC 2998): 33.7 µM (inactive)
GI50 (MDA-MB-231): > 100 µM (inactive)
GI50 (M14): 91 µM (inactive)
GI50 (OVCAR-8): 61.8 µM (inactive)
GI50 (MOLT-4): 27.5 µM (inactive)
GI50 (ACHN): 98.6 µM (inactive)
GI50 (EKVX): > 100 µM (inactive)
GI50 (SK-MEL-28): 92.9 µM (inactive)
GI50 (TK-10): 37.6 µM (inactive)
GI50 (UO-31): 11.3 µM (inactive)
GI50 (PC-3): 59.3 µM (inactive)
GI50 (CCRF-CEM): 48.5 µM (inactive)
GI50 (SR): 60.5 µM (inactive)
GI50 (NCI-H522): 31.1 µM (inactive)
GI50 (SW-620): 59 µM (inactive)
GI50 (U-251): 68.2 µM (inactive)
GI50 (MDA-MB-435): > 100 µM (inactive)
GI50 (SNB-19): > 100 µM (inactive)
GI50 (HOP-62): > 100 µM (inactive)
GI50 (786-0): > 100 µM (inactive)
GI50 (MCF7): 84.3 µM (inactive)
GI50 (SK-MEL-5): 91 µM (inactive)
GI50 (SF-268): > 100 µM (inactive)
GI50 (DU-145): > 100 µM (inactive)
GI50 (UACC-257): > 100 µM (inactive)
GI50 (HOP-92): 53 µM (inactive)
GI50 (OVCAR-5): > 100 µM (inactive)
GI50 (NCI-H226): > 100 µM (inactive)

COc1ccc(-n2c(=O)n(C)c(=O)n2-c2ccc(OC)cc2)cc1
GI50 (CAKI-1): > 100 µM (inactive)
GI50 (SF-295): > 100 µM (inactive)
GI50 (K562): > 100 µM (inactive)
GI50 (HCT-15): > 100 µM
GI50 (NCI/ADR-RES): > 100 µM (inactive)
GI50 (OVCAR-3): > 100 µM (inactive)
GI50 (IGROV-1): > 100 µM (inactive)
GI50 (BT-549): > 100 µM (inactive)
GI50 (COLO 205): > 100 µM (inactive)
GI50 (HT-29): > 100 µM (inactive)
GI50 (HL-60): > 100 µM (inactive)
GI50 (HCT-116): 98.6 µM (inactive)
GI50 (Hs-578T): 9.48 µM (inactive)
GI50 (SK-OV-3): > 100 µM (inactive)
GI50 (UACC-62): > 100 µM (inactive)
GI50 (NCI-H23): > 100 µM (inactive)
GI50 (SK-MEL-2): > 100 µM (inactive)
GI50 (SN12C): > 100 µM (inactive)
GI50 (NCI-H460): > 100 µM (inactive)
GI50 (SNB-75): 56.6 µM (inactive)
GI50 (SF-539): > 100 µM (inactive)
GI50 (LOX IMVI): 59.2 µM (inactive)
GI50 (T47D): > 100 µM (inactive)
GI50 (KM12): > 100 µM (inactive)
GI50 (MDA-N): > 100 µM (inactive)
GI50 (A549): > 100 µM (inactive)
GI50 (RPMI-8226): > 100 µM (inactive)
GI50 (MDA-MB-231): > 100 µM (inactive)
GI50 (M14): > 100 µM (inactive)
GI50 (OVCAR-8): > 100 µM (inactive)
GI50 (MOLT-4): > 100 µM (inactive)
GI50 (ACHN): > 100 µM (inactive)
GI50 (A498): > 100 µM (inactive)
GI50 (EKVX): > 100 µM (inactive)
GI50 (SK-MEL-28): > 100 µM (inactive)
GI50 (TK-10): > 100 µM (inactive)
GI50 (UO-31): > 100 µM (inactive)
GI50 (PC-3): > 100 µM (inactive)
GI50 (CCRF-CEM): > 100 µM (inactive)
GI50 (SR): > 100 µM (inactive)
GI50 (SW-620): > 100 µM (inactive)
GI50 (U-251): > 100 µM (inactive)
GI50 (MDA-MB-435): > 100 µM (inactive)
GI50 (SNB-19): > 100 µM (inactive)
GI50 (HOP-62): > 100 µM (inactive)
GI50 (786-0): > 100 µM (inactive)
GI50 (MCF7): > 100 µM (inactive)
GI50 (SK-MEL-5): > 100 µM (inactive)
GI50 (SF-268): > 100 µM (inactive)
GI50 (DU-145): > 100 µM (inactive)
GI50 (UACC-257): > 100 µM (inactive)
GI50 (HOP-92): > 100 µM (inactive)
GI50 (OVCAR-5): > 100 µM (inactive)
GI50 (NCI-H226): > 100 µM (inactive)

CN(C)CCCn1cnc2cc(Cl)c(Cl)cc21
GI50 (OVCAR-4): > 100 µM (inactive)
GI50 (CAKI-1): 64.3 µM (inactive)
GI50 (SF-295): > 100 µM (inactive)
GI50 (K562): 67.3 µM (inactive)
GI50 (HCT-15): > 100 µM
GI50 (NCI/ADR-RES): > 100 µM (inactive)
GI50 (OVCAR-3): > 100 µM (inactive)
GI50 (IGROV-1): 56.4 µM (inactive)
GI50 (Malme-3M): > 100 µM (inactive)
GI50 (BT-549): 66.7 µM (inactive)
GI50 (COLO 205): 79.3 µM (inactive)
GI50 (HT-29): 72.3 µM (inactive)
GI50 (HL-60): > 100 µM (inactive)
GI50 (HCT-116): 48 µM (inactive)
GI50 (Hs-578T): > 100 µM (inactive)
GI50 (SK-OV-3): > 100 µM (inactive)
GI50 (UACC-62): 27.7 µM (inactive)
GI50 (NCI-H23): > 100 µM (inactive)
GI50 (SK-MEL-2): > 100 µM (inactive)
GI50 (SN12C): 43.8 µM (inactive)
GI50 (NCI-H460): 91.8 µM (inactive)
GI50 (SNB-75): 33.1 µM (inactive)
GI50 (LOX IMVI): 59.2 µM (inactive)
GI50 (T47D): 59.7 µM (inactive)
GI50 (KM12): > 100 µM (inactive)
GI50 (RXF 393): 61.2 µM (inactive)
GI50 (MDA-N): 34.1 µM (inactive)
GI50 (A549): > 100 µM (inactive)
GI50 (RPMI-8226): 38.4 µM (inactive)
GI50 (HCC 2998): 22 µM (inactive)
GI50 (MDA-MB-231): > 100 µM (inactive)
GI50 (M14): 16.6 µM (inactive)
GI50 (OVCAR-8): > 100 µM (inactive)
GI50 (ACHN): > 100 µM (inactive)
GI50 (A498): > 100 µM (inactive)
GI50 (EKVX): > 100 µM (inactive)
GI50 (SK-MEL-28): 17.9 µM (inactive)
GI50 (TK-10): 42.7 µM (inactive)
GI50 (UO-31): 70 µM (inactive)
GI50 (PC-3): > 100 µM (inactive)
GI50 (CCRF-CEM): 55.7 µM (inactive)
GI50 (SR): 93.5 µM (inactive)
GI50 (NCI-H522): > 100 µM (inactive)
GI50 (SW-620): > 100 µM (inactive)
GI50 (U-251): > 100 µM (inactive)
GI50 (MDA-MB-435): 55.8 µM (inactive)
GI50 (SNB-19): > 100 µM (inactive)
GI50 (HOP-62): > 100 µM (inactive)
GI50 (786-0): 59.6 µM (inactive)
GI50 (MCF7): > 100 µM (inactive)
GI50 (SK-MEL-5): 53.1 µM (inactive)
GI50 (SF-268): > 100 µM (inactive)
GI50 (DU-145): > 100 µM (inactive)
GI50 (UACC-257): 19.8 µM (inactive)
GI50 (OVCAR-5): > 100 µM (inactive)
GI50 (NCI-H226): > 100 µM (inactive)
